# From US20240076285A1, “COMPOUNDS AND COMPOSITIONS FOR TREATING CONDITIONS ASSOCIATED WITH STING ACTIVITY” (IFM Due, Inc., priority 2020, published 2024)
# Biological target: T1, hSTING (Homo sapiens, UniProt Q86WV6, G230A/H232R/R293Q/R71H)
# T1 construct: host or cells: THP1-Dual KO-IFNAR2 cells
# Assay: STING reporter assay in THP1-Dual KO-IFNAR2 cells (2'3'cGAMP stimulation, luciferase reporter)
# Type: cell-based
# Details: 15 μM 2'3'cGAMP, 24 h
# Procedure: STING pathway activation by the compounds described herein was measured using THP1-Dual™ cells (KO-IFNAR2).
# THP1-Dual™ KO-IFNAR2 Cells (obtained from invivogen) were maintained in RPMI, 10% FCS, 5 ml P/S, 2 mM L-glut, 10 mM Hepes, and 1 mM sodium pyruvate. Compounds were spotted in empty 384 well tissue culture plates (Greiner 781182) by Echo for a final concentration of 0.0017-100 μM. Cells were plated into the TC plates at 40 μL per well, 2×10E6 cells/mL. For activation with STING ligand, 2′3′cGAMP (MW 718.38, obtained from Invivogen), was prepared in Optimem media.
# The following solutions were prepared for each 1×384 plate: • Solution A: 2 mL Optimem with one of the following stimuli: • 60 μL of 10 mM 2′3′cGAMP→150 μM stock • Solution B: 2 mL Optimem with 60 μL Lipofectamine 2000→Incubate 5 min at RT
# 2 mL of solution A and 2 ml Solution B was mixed and incubated for 20 min at room temperature (RT). 20 μL of transfection solution (A+B) was added on top of the plated cells, with a final 2′3′cGAMP concentration of 15 μM. The plates were then centrifuged immediately at 340 g for 1 minute, after which they were incubated at 37° C., 5% CO2, >98% humidity for 24 h. Luciferase reporter activity was then measured. EC50 values were calculated by using standard methods known in the art.
# Luciferase reporter assay: 10 μL of supernatant from the assay was transferred to white 384-plate with flat bottom and squared wells. One pouch of QUANTI-Luc™ Plus was dissolved in 25 mL of water. 100 μL of QLC Stabilizer per 25 mL of QUANTI-Luc™ Plus solution was added. 50 μL of QUANTI-Luc™ Plus/QLC solution per well was then added. Luminescence was measured on a Platereader (e.g., Spectramax I3X (Molecular Devices GF3637001)).
# Luciferase reporter activity was then measured. EC50 values were calculated by using standard methods known in the art.
# T1 sequence (Q86WV6 whole entry R71H/G230A/H232R/R293Q): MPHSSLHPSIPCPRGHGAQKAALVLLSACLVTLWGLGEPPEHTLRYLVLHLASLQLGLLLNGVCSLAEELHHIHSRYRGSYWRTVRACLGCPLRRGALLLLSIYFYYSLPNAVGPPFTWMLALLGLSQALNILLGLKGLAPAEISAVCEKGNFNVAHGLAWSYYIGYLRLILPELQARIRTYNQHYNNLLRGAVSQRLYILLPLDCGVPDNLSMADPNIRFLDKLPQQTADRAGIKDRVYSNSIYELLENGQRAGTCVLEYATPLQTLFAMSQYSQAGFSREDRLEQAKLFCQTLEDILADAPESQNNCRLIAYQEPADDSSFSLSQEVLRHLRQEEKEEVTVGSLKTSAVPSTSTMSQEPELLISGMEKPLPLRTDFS
Structure (SMILES),EC50 (class symbols),EC50 (numeric bound)
"N#Cc1cc(Nc2ccc3c(c2)CC(=O)N3)cc(Nc2ccc3cc[nH]c3c2)n1 [Compound 101, 6-[(1H-indol-6-yl)amino]-4-[(2-oxo-2,3-dihydro-1H-indol-5-yl)amino]pyridine-2-carbonitrile]",5000 to 100000 nM,–
"N#Cc1cc(Nc2ccc(F)c(F)c2)cc(Nc2ccc3cc[nH]c3c2)n1 [Compound 116, 4-[(3,4-difluorophenyl)amino]-6-[(1H-indol-6-yl)amino]pyridine-2-carbonitrile]",200 to 1000 nM,–
"CC(C)c1cncc(Nc2cc(C#N)nc(Nc3ccc4cc[nH]c4c3)c2)c1 [Compound 124, 6-[(1H-indol-6-yl)amino]-4-{[5-(propan-2-yl)pyridin-3-yl]amino}pyridine-2-carbonitrile]",200 to 1000 nM,–
"Cc1nc2cc(Nc3cc(C#N)nc(Nc4cc(Cl)c5cc[nH]c5c4)c3)ccc2s1 [Compound 172, 6-[(4-chloro-1H-indol-6-yl)amino]-4-[(2-methyl-1,3-benzothiazol-5-yl)amino]pyridine-2-carbonitrile]",200 to 1000 nM,–
"N#Cc1cc(Nc2ccc(C(F)(F)F)c(F)c2)cc(Nc2cc(Cl)c3cc[nH]c3c2)n1 [Compound 159, 6-[(4-chloro-1H-indol-6-yl)amino]-4-{[3-fluoro-4-(trifluoromethyl)phenyl]amino}pyridine-2-carbonitrile]",40 to 200 nM,–
"N#Cc1cc(Nc2cc(Cl)cc(Cl)c2)cc(Nc2ccc3cc[nH]c3c2)n1 [Compound 136, 4-[(3,5-dichlorophenyl)amino]-6-[(1H-indol-6-yl)amino]pyridine-2-carbonitrile]",200 to 1000 nM,–
"N#Cc1cc(N2CCC(Cc3ccccc3)CC2)cc(Nc2cc(Cl)c3cc[nH]c3c2)n1 [Compound 151, 4-(4-benzylpiperidin-1-yl)-6-[(4-chloro-1H-indol-6-yl)amino]pyridine-2-carbonitrile]",200 to 1000 nM,–
"CC(C)CN1CCN(c2cc(C#N)nc(Nc3ccc4cc[nH]c4c3)c2)CC1 [Compound 113, 6-[(1H-indol-6-yl)amino]-4-[4-(2-methylpropyl)piperazin-1-yl]pyridine-2-carbonitrile]",1000 to 5000 nM,–
"N#Cc1cc(Cl)cc(Nc2cc(C#N)nc(Nc3ccc4cc[nH]c4c3)c2)c1 [Compound 135, 4-[(3-chloro-5-cyanophenyl)amino]-6-[(1H-indol-6-yl)amino]pyridine-2-carbonitrile]",200 to 1000 nM,–
"N#Cc1cc(Nc2ccc(C(F)(F)F)c(Cl)c2)cc(Nc2cc(Cl)c3cc[nH]c3c2)n1 [Compound 173, 6-[(4-chloro-1H-indol-6-yl)amino]-4-{[3-chloro-4-(trifluoromethyl)phenyl]amino}pyridine-2-carbonitrile]",200 to 1000 nM,–
"COC1CCN(c2cc(C#N)nc(Nc3ccc4cc[nH]c4c3)c2)CC1 [Compound 103, 6-[(1H-indol-6-yl)amino]-4-(4-methoxypiperidin-1-yl)pyridine-2-carbonitrile]",–,> 30000 nM
"N#Cc1cc(Nc2ccc(OC(F)F)nc2)cc(Nc2ccc3cc[nH]c3c2)n1 [Compound 126, 4-{[6-(difluoromethoxy)pyridin-3-yl]amino}-6-[(1H-indol-6-yl)amino]pyridine-2-carbonitrile]",200 to 1000 nM,–
"N#Cc1cc(Nc2ccc(OCC(F)(F)F)nc2)cc(Nc2cc(Cl)c3cc[nH]c3c2)n1 [Compound 153, 6-[(4-chloro-1H-indol-6-yl)amino]-4-{[6-(2,2,2-trifluoroethoxy)pyridin-3-yl]amino}pyridine 2-carbonitrile]",40 to 200 nM,–
"N#Cc1cc(Nc2cc(F)cc(C(F)(F)F)c2)cc(Nc2cc(Cl)c3cc[nH]c3c2)n1 [Compound 186, 6-[(4-chloro-1H-indol-6-yl)amino]-4-{[3-fluoro-5-(trifluoromethyl)phenyl]amino}pyridine-2-carbonitrile]",200 to 1000 nM,–
"COc1ccc(Nc2cc(C#N)nc(Nc3ccc4cc[nH]c4c3)c2)cn1 [Compound 131, 6-[(1H-indol-6-yl)amino]-4-[(6-methoxypyridin-3-yl)amino]pyridine-2-carbonitrile]",1000 to 5000 nM,–
"CNC(=O)c1ccc(Nc2cc(C#N)nc(Nc3ccc4cc[nH]c4c3)c2)cc1F [Compound 132, 4-({2-cyano-6-[(1H-indol-6-yl)amino]pyridin-4-yl}amino)-2-fluoro-N-methylbenzamide]",5000 to 100000 nM,–
"CN1CCN(c2cc(C#N)nc(Nc3cc(Cl)c4cc[nH]c4c3)c2)CC1 [Compound 152, 6-[(4-chloro-1H-indol-6-yl)amino]-4-(4-methylpiperazin-1-yl)pyridine-2-carbonitrile]",5000 to 100000 nM,–

Structure (SMILES),EC50 (class symbols),EC50 (numeric bound)
"N#Cc1cc(N2CCC(C(F)(F)F)CC2)cc(Nc2cc(Cl)c3cc[nH]c3c2)n1 [Compound 147, 6-[(4-chloro-1H-indol-6-yl)amino]-4-[4-(trifluoromethyl)piperidin-1-yl]pyridine-2-carbonitrile]",200 to 1000 nM,–
"COc1cc(Nc2cc(C#N)nc(Nc3ccc4cc[nH]c4c3)c2)cnc1Cl [Compound 128, 4-[(6-chloro-5-methoxypyridin-3-yl)amino]-6-[(1H-indol-6-yl)amino]pyridine-2-carbonitrile]",1000 to 5000 nM,–
"CCc1ccc(Nc2cc(C#N)nc(Nc3ccc4cc[nH]c4c3)c2)cn1 [Compound 111, 4-[(6-ethylpyridin-3-yl)amino]-6-[(1H-indol-6-yl)amino]pyridine-2-carbonitrile]",1000 to 5000 nM,–
"N#Cc1cc(Nc2cncc(F)c2)cc(Nc2ccc3cc[nH]c3c2)n1 [Compound 129, 4-[(5-fluoropyridin-3-yl)amino]-6-[(1H-indol-6-yl)amino]pyridine-2-carbonitrile]",1000 to 5000 nM,–
"Cc1nn(C)c2ccc(Nc3cc(C#N)nc(Nc4cc(Cl)c5cc[nH]c5c4)c3)cc12 [Compound 176, 6-[(4-chloro-1H-indol-6-yl)amino]-4-[(1,3-dimethyl-1H-indazol-5-yl)amino]pyridine-2-carbonitrile]",200 to 1000 nM,–
"N#Cc1cc(Nc2ccc(OC(F)F)nc2)cc(Nc2cc(Cl)c3cc[nH]c3c2)n1 [Compound 182, 6-[(4-chloro-1H-indol-6-yl)amino]-4-{[6-(difluoromethoxy)pyridin-3-yl]amino}pyridine-2-carbonitrile]",40 to 200 nM,–
"N#Cc1cc(Nc2ccc(Cl)c(F)c2)cc(Nc2cc(Cl)c3cc[nH]c3c2)n1 [Compound 165, 6-[(4-chloro-1H-indol-6-yl)amino]-4-[(4-chloro-3-fluorophenyl)amino]pyridine-2-carbonitrile]",40 to 200 nM,–
"N#Cc1cc(Nc2cc(Cl)cc(OC(F)(F)F)c2)cc(Nc2cc(Cl)c3cc[nH]c3c2)n1 [Compound 167, 6-[(4-chloro-1H-indol-6-yl)amino]-4-{[3-chloro-5-(trifluoromethoxy)phenyl]amino}pyridine-2-carbonitrile]",200 to 1000 nM,–
"N#Cc1cc(Nc2cncc(C(F)(F)F)c2)cc(Nc2ccc3cc[nH]c3c2)n1 [Compound 141, 6-[(1H-indol-6-yl)amino]-4-{[5-(trifluoromethyl)pyridin-3-yl]amino}pyridine-2-carbonitrile]",200 to 1000 nM,–
"N#Cc1cc(Nc2ccc(OCC(F)(F)F)nc2)cc(Nc2ccc3cc[nH]c3c2)n1 [Compound 127, 6-[(1H-indol-6-yl)amino]-4-{[6-(2,2,2-trifluoroethoxy)pyridin-3-yl]amino}pyridine-2-carbonitrile]",200 to 1000 nM,–
"N#Cc1cc(Nc2cc(F)cc(C(F)(F)F)c2)cc(Nc2ccc3cc[nH]c3c2)n1 [Compound 110, 4-{[3-fluoro-5-(trifluoromethyl)phenyl]amino} 6-[(1H-indol-6-yl)amino]pyridine-2-carbonitrile]",200 to 1000 nM,–
"Cc1nc2ccc(Nc3cc(C#N)nc(Nc4cc(Cl)c5cc[nH]c5c4)c3)cc2s1 [Compound 179, 6-[(4-chloro-1H-indol-6-yl)amino]-4-[(2-methyl-1,3-benzothiazol-6-yl)amino]pyridine-2-carbonitrile]",200 to 1000 nM,–
"N#Cc1cc(Nc2ccc3c(c2)C(=O)NC3)cc(Nc2ccc3cc[nH]c3c2)n1 [Compound 123, 6-[(1H-indol-6-yl)amino]-4-[(3-oxo-2,3-dihydro-1H-isoindol-5-yl)amino]pyridine-2-carbonitrile]",5000 to 100000 nM,–
"N#Cc1cc(Nc2cncc(Cl)c2)cc(Nc2ccc3cc[nH]c3c2)n1 [Compound 109, 4-[(5-chloropyridin-3-yl)amino]-6-[(1H-indol-6-yl)amino]pyridine-2-carbonitrile]",1000 to 5000 nM,–
"N#Cc1cc(Nc2cc(F)cc(F)c2)cc(Nc2ccc3cc[nH]c3c2)n1 [Compound 137, 4-[(3,5-difluorophenyl)amino]-6-[(1H-indol-6-yl)amino]pyridine-2-carbonitrile]",200 to 1000 nM,–
"COc1cc(Nc2cc(C#N)nc(Nc3cc(Cl)c4cc[nH]c4c3)c2)cnc1Cl [Compound 150, 6-[(4-chloro-1H-indol-6-yl)amino]-4-[(6-chloro-5-methoxypyridin-3-yl)amino]pyridine-2-carbonitrile]",200 to 1000 nM,–
